Measurements as given in US8318770B2, “Tetrahydroquinoline indole derivatives and uses thereof” (Roche Palo Alto LLC, priority 2009, dated 2012).
pKi: −log10 of the molar value.

How the values were obtained:
Format in all cases: binding
[1] = molecular target: T1, human serotonin transporter (hSERT) (Homo sapiens, UniProt P31645); assay: Human serotonin transporter (hSERT) scintillation proximity assay, competition with [3H]-Citalopram; settings: membranes of HEK-293 cells expressing recombinant hSERT, Ki by Cheng-Prusoff
T1 construct: expressed in transfected cells; host or cells: HEK-293
T1 sequence (P31645 whole entry): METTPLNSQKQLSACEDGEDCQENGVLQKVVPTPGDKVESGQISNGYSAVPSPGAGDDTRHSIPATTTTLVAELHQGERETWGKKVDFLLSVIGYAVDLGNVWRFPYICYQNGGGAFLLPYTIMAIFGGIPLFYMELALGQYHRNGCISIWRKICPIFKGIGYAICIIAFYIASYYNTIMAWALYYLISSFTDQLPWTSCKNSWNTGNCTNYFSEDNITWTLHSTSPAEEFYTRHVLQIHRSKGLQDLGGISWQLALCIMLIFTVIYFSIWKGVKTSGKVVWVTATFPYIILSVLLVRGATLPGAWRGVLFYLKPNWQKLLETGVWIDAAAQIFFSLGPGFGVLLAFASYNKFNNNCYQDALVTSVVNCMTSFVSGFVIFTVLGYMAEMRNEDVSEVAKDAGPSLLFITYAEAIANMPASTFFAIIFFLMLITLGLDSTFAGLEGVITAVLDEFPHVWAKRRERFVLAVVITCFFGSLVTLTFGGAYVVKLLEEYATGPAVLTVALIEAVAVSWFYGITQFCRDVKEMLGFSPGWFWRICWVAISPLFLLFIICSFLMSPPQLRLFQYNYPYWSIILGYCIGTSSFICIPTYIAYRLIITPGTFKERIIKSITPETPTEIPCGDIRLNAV
Procedure: The screening assay of this example was used to determine the affinity of ligands at the hSERT transporter by competition with [^3H]-Citalopram.
Scintillation Proximity Assay (SPA) works by bringing radioligand within close proximity to the bead's scintillant to stimulate light emission. In this assay, the receptor-containing membranes were pre-coupled to the SPA beads and the binding of the appropriate radioligand to the transporter was measured. The light emission was proportional to the amount of bound radioligand. Unbound radioligand produced no signal as a result of distant proximity to scintillant (lack of energy transfer). […]
(§1) Cell membranes were prepared using a membrane preparation buffer of 50 mM TRIS (pH 7.4). […] After a second centrifugation, the pellet was re-homogenized and brought to a final volume determined during the assay. […]
The % inhibition was calculated for each compound tested [(Compound counts per minute (CPM) at maximum concentration-Non-Specific CPM)/Total CPM*100]. […]
(§2) [formula] where max=total binding, min=non specific binding, x=concentration (M) of the tested compound and n=Hill slope. The inhibition dissociation constant (Ki) of each compound was determined according to the method of Cheng-Prusoff and then converted into negative logarithm (pKi) of the Ki.

[2] = molecular target: T2, human dopamine transporter (hDAT) (Homo sapiens, UniProt Q01959); assay: Human dopamine transporter (hDAT) scintillation proximity assay, competition with [3H]-Vanoxerine; settings: HEK-293 cells expressing recombinant hDAT, Ki by Cheng-Prusoff
T2 construct: expressed in transfected cells; host or cells: HEK-293
T2 sequence (Q01959 whole entry): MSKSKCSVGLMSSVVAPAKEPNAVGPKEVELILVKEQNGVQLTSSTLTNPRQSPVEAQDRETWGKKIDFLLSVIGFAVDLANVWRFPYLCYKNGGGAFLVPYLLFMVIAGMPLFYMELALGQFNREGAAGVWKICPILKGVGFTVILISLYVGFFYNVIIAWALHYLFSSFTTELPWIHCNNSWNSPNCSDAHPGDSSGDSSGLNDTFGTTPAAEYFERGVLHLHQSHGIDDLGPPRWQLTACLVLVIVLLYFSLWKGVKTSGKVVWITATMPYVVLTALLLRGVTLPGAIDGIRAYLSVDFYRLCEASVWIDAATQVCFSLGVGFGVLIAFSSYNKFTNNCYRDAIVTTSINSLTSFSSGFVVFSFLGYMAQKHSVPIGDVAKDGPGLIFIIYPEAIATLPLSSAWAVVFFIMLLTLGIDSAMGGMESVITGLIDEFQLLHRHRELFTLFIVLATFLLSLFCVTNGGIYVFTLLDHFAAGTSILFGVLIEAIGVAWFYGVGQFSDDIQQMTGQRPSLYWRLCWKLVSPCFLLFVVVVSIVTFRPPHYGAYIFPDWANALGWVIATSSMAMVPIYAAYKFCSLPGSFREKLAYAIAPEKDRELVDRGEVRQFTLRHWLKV
Procedure: This assay was used to determine the affinity of ligands for the dopamine transporter by competition with [^3H]-Vanoxerine.
HEK-293 cells (Tatsumi et al., Eur. J. Pharmacol. 1997, 30, 249-258) stably expressing recombinant hDAT were maintained with media (DMEM hi glucose with 10% FBS, […] G418 and 2 mM L-Glutamine) and incubated at 37° C. with 5% CO2. Cells were plated four hours prior to experiment by placing approximately 30,000 cells per well (in PBS) on white, opaque Cell-Tak coated 96 well plates. Extra buffer was apriated from the cell plates using an ELx405 plate washer.
^3[H] vanoxerine (GBR 12909) radioligand, specific activity approximately 59 Ci/mmol, stock concentration, 400 nM, and 50 mM Tris-HCl, 300 mM NaCl, (pH 7.4) buffers were used for Scintillation Proximity Assay IC50/Ki determination. […]
The % inhibition was calculated for each compound tested [(Compound CPM at maximum concentration-Non-Specific CPM)/Total CPM*100]. […]
as §2

[3] = molecular target: T3, human norepinephrine transporter (hNET) (Homo sapiens, UniProt P23975); assay: Human norepinephrine transporter (hNET) scintillation proximity assay, competition with [3H]-Nisoxetine; settings: membranes of HEK-293 cells expressing recombinant hNET, Ki by Cheng-Prusoff
T3 construct: expressed in transfected cells; host or cells: HEK-293 (Clone: HEK-hNET #2)
T3 sequence (P23975 whole entry): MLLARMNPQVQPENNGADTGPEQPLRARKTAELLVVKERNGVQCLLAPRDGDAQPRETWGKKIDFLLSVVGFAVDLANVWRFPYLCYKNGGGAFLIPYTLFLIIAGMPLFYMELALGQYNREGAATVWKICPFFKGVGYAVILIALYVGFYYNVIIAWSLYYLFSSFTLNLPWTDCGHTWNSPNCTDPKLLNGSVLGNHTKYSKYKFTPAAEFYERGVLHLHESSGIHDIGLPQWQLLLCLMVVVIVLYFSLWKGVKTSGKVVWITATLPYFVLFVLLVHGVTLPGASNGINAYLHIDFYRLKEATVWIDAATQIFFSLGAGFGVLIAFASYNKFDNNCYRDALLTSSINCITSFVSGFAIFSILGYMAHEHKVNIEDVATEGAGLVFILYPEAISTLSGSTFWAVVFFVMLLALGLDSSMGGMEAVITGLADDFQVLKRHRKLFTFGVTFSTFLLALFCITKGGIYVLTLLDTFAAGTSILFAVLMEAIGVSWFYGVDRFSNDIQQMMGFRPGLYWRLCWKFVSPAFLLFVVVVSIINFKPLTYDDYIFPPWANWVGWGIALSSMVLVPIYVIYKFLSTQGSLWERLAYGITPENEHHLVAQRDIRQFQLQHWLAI
Procedure: This assay was used to determine the affinity of ligands for the hNET transporter by competition with [^3H]-Nisoxetine. As in the hSERT assay of the above example, receptor-containing membranes were pre-coupled to the SPA beads and the binding of the appropriate radioligand to the transporter was measured. The light emission was proportional to the amount of bound radioligand, with unbound radioligand producing no signal.
HEK-293 cells (Tatsumi et al., Eur. J. Pharmacol. 1997, 30, 249-258) stably expressing recombinant hNET (Clone: HEK-hNET #2) were maintained with media (DMEM hi glucose with 10% FBS, 300 ug/ml G418 and 2 mM L-Glutamine) and incubated at 37° C. with 5% CO2. Cells were released from culture flasks using PBS for 1-2 minutes. […]
as §1
^3[H] […] The mixtures were allowed to stand at room temperature for one hour, and were then counted on a Packard TopCount LCS, a generic SPA counting protocol settings (Energy Range: Low, Efficiency Mode: Normal, Region A: 1.50-35.00, Region B: 1.50-256.00, Count Time (min.): 0.40, Background Subtract: none, Half-Life Correction: no, Quench Indicator: tSIS, Platemap blank subtraction: No, Cross talk reduction: Off). […]

A pKi [1] of roughly 7.48, a pKi [2] of roughly 7.85 and a pKi [3] of roughly 7.81 were found for `CNC1CCN(c2ccc3[nH]ccc3c2)c2ccccc21` (stereo not drawn) [[1-(1H-Indol-5-yl)-1,2,3,4-tetrahydro-quinolin-4-yl]-methyl-amine] in this work.
